Data on 36 molecules can be found in the SangsterLogP compilation.

Assay in the first data set: not given
Conditions: not given
Turning to `CC(C)CCCCNC(=O)C1(O)C(C)CC2C3CCC4=CC(=O)C=CC4(C)C3(F)C(O)CC21C` (stereo unspecified), the logP amounted to 3.91. In turn, `COc1cccc(CNC(=O)C2(O)CC3C4CCC5=CC(=O)C=CC5(C)C4(F)C(O)CC32C)c1` (stereo unspecified) came in with a logP of 3.15. Turning to `CC1CC2C3CCC4=CC(=O)C=CC4(C)C3(F)C(O)CC2(C)C1(O)C(=O)NCc1ccc(Cl)cc1` (stereo unspecified), the log partition coefficient (logP) stood at 3.71.

Regarding `CC1CC2C3CCC4=CC(=O)C=CC4(C)C3(F)C(O)CC2(C)C1(O)C(=O)NCc1ccc([N+](=O)[O-])cc1` (stereo unspecified), the logP came to 3.37. `COc1ccc(CNC(=O)C2(O)C(C)CC3C4CCC5=CC(=O)C=CC5(C)C4(F)C(O)CC32C)cc1` (stereo unspecified) gave a logP of 3.04.

The molecule `COc1ccccc1CNC(=O)C1(O)C(C)CC2C3CCC4=CC(=O)C=CC4(C)C3(F)C(O)CC21C` (stereo unspecified) yielded a logP of 3.09.

Another data set is described as follows: method code SF-HPLC, from DOI: 10.1016/s0021-9673(01)84554-4.
Conditions: not given
Molecule `CC1CC2C3CCC4=CC(=O)C=CC4(C)C3(F)C(O)CC2(C)C1(O)C(=O)NCC(=O)O` (stereo unspecified) had a logP of 1.2. Consider `CC1CC2C3CCC4=CC(=O)C=CC4(C)C3(F)C(O)CC2(C)C1(O)C(=O)NCCCCCCN` (stereo unspecified), for which the logP stood at 2.61. In turn, `CCCNCCNC(=O)C1(O)C(C)CC2C3CCC4=CC(=O)C=CC4(C)C3(F)C(O)CC21C` (stereo unspecified) returned a logP of 3.94. For `CC1CC2C3CCC4=CC(=O)C=CC4(C)C3(F)C(O)CC2(C)C1(O)C(=O)NCCCCCCCCN` (stereo unspecified), the logP is 3.72. For `CC1CC2C3CCC4=CC(=O)C=CC4(C)C3(F)C(O)CC2(C)C1(O)C(=O)NCCCCCC(=O)O` (stereo unspecified), the logP stood at 2.29. Take `CC1CC2C3CCC4=CC(=O)C=CC4(C)C3(F)C(O)CC2(C)C1(O)C(=O)NCCCCN` (stereo unspecified): the logP came to 2.3. In turn, `CC1CC2C3CCC4=CC(=O)C=CC4(C)C3(F)C(O)CC2(C)C1(O)C(=O)NCCCCCCCCCN` (stereo unspecified) showed a logP of 4.13.

Staying with this data set, now noted: pH 7.4.
Turning to `CC1CC2C3CCC4=CC(=O)C=CC4(C)C3(F)C(O)CC2(C)C1(O)C(=O)NCCO` (stereo unspecified), the logD is 1.51. Molecule `CC1CC2C3CCC4=CC(=O)C=CC4(C)C3(F)C(O)CC2(C)C1(O)C(=O)NC(C)(C)C` (stereo unspecified) yielded a logD of 3.2. With `CC(C)NC(=O)C1(O)C(C)CC2C3CCC4=CC(=O)C=CC4(C)C3(F)C(O)CC21C` (stereo unspecified), the logD amounted to 2.43. For `CC1CC2C3CCC4=CC(=O)C=CC4(C)C3(F)C(O)CC2(C)C1(O)C(=O)NCCCl` (stereo unspecified), the logD is 2.73. The same measure, in the same setting: the same measure for `C#CCNC(=O)C1(O)C(C)CC2C3CCC4=CC(=O)C=CC4(C)C3(F)C(O)CC21C` (stereo unspecified): 2; for `CCCCNC(=O)C1(O)C(C)CC2C3CCC4=CC(=O)C=CC4(C)C3(F)C(O)CC21C` (stereo unspecified): 3.1. Same read-out and setting: as for `CNC(=O)C1(O)C(C)CC2C3CCC4=CC(=O)C=CC4(C)C3(F)C(O)CC21C` (stereo unspecified), the figure is 1.54; as for `CCCCCCNC(=O)C1(O)C(C)CC2C3CCC4=CC(=O)C=CC4(C)C3(F)C(O)CC21C` (stereo unspecified), 4.54.

The molecule `CCOC(CNC(=O)C1(O)C(C)CC2C3CCC4=CC(=O)C=CC4(C)C3(F)C(O)CC21C)OCC` (stereo unspecified) registered a logD of 2.65. Still for that read-out and setting: the same measure for `COC(=O)CNC(=O)C1(O)C(C)CC2C3CCC4=CC(=O)C=CC4(C)C3(F)C(O)CC21C` (stereo unspecified): 1.69. `CC(C)CCCNC(=O)C1(O)C(C)CC2C3CCC4=CC(=O)C=CC4(C)C3(F)C(O)CC21C` (stereo unspecified) showed a logD of 3.93.

In turn, `C[C@@H]1C[C@H]2[C@@H]3CCC4=CC(=O)C=C[C@]4(C)[C@@]3(F)[C@@H](O)C[C@]2(C)[C@@]1(O)C(N)=O` gave a logD of 1.41.

In turn, `CCCNC(=O)C1(O)C(C)CC2C3CCC4=CC(=O)C=CC4(C)C3(F)C(O)CC21C` (stereo unspecified) had a log distribution coefficient (logD) of 2.59. The molecule `CC1CC2C3CCC4=CC(=O)C=CC4(C)C3(F)C(O)CC2(C)C1(O)C(=O)NCC#N` (stereo unspecified) had a logD of 1.57. The same measure, in the same setting: as for `CC(C)CCNC(=O)C1(O)C(C)CC2C3CCC4=CC(=O)C=CC4(C)C3(F)C(O)CC21C` (stereo unspecified), the figure is 3.74; as for `CC1CC2C3CCC4=CC(=O)C=CC4(C)C3(F)C(O)CC2(C)C1(O)C(=O)NCCc1ccccc1` (stereo unspecified), 3.66; as for `CCNC(=O)C1(O)C(C)CC2C3CCC4=CC(=O)C=CC4(C)C3(F)C(O)CC21C` (stereo unspecified), 2.07. In turn, `CC1CC2C3CCC4=CC(=O)C=CC4(C)C3(F)C(O)CC2(C)C1(O)C(=O)NCc1ccccc1` (stereo unspecified) returned a logD of 3.28. For `COC(=O)C(Cc1ccccc1)NC(=O)C1(O)C(C)CC2C3CCC4=CC(=O)C=CC4(C)C3(F)C(O)CC21C` (stereo unspecified), the logD worked out at 3.4. Consider `CC1CC2C3CCC4=CC(=O)C=CC4(C)C3(F)C(O)CC2(C)C1(O)C(=O)NC(CO)c1ccccc1` (stereo unspecified), for which the logD came out at 2.89. Molecule `CC(C)CNC(=O)C1(O)C(C)CC2C3CCC4=CC(=O)C=CC4(C)C3(F)C(O)CC21C` (stereo unspecified) came in with a pH-dependent lipophilicity (logD) of 3.01.

The molecule `CCCCCNC(=O)C1(O)C(C)CC2C3CCC4=CC(=O)C=CC4(C)C3(F)C(O)CC21C` (stereo unspecified) gave a logD of 3.64. `CC1CC2C3CCC4=CC(=O)C=CC4(C)C3(F)C(O)CC2(C)C1(O)C(=O)NC1CCCCC1` (stereo unspecified) registered a logD of 3.54.
